Patent US12458621B1, “Application of genipin beta-methyl derivative gen-17 in preparation of drug for prevention and treatment of acute severe pneumonia” (KUNMING MEDICAL UNIVERSITY, priority 2024, dated 2025)

Experiments:
Type in all cases: in vivo, Kunming mice
MDA = MDA content in lung tissue; settings: after drug treatment, compared with LPS group
Description: (§1) A total of 144 SPF-grade healthy Kunming mice, aged 5-7 weeks and weighing 18-22 g, are weighed and randomly allocated into six experimental groups: control group (NS), model group (LPS), dexamethasone group (DEX, […] per kilogram abbreviated as mg/kg), genipin beta-methyl derivative low-dose group (12.5 mg/kg), genipin beta-methyl derivative medium-dose group (25 mg/kg), and genipin beta-methyl derivative high-dose group (50 mg/kg), 24 animals per group, in which 12 animals are used to take lung tissue for the detection of other indicators, and another 12 animals are used to collect BALF. […]
(§2) Samples are collected 24 hours after the animal model is established. […] Lung tissues are collected and the whole lung wet weight is measured. […] After tidying, the lungs are photographed, excess tissues such as the trachea are cleared away, and the wet weight of the whole lung is measured to calculate the lung index. • (3) The upper lobe of the left lung is fixed in 4% neutral paraformaldehyde, fixed for 24 hours, paraffin-embedded and sectioned for HE staining. • (4) The remaining lung tissues are put into centrifugal tubes separately, quickly frozen in liquid nitrogen, and then stored at −80° C. after the experiment, which is used for the detection of MDA, SOD, western blotting (WB) and reverse transcription polymerase chain reaction (RT-PCR). […]

Keap1 = Keap1 protein in lung tissue by WB
Description: (§3) The dosage is converted according to the weight of the mice, and the gavage volume is 20 milliliters per kilogram (mL/kg), and the gavage is continued for 3 days. One hour after the gavage on the third day, the ALI model is established by tracheal instillation of LPS solution. […] After the mice are awake, they are raised as usual. 2.3 Treatment of Experimental Animals and Collection of Lung Tissue Specimens
Samples are collected 24 hours after the animal model is established. The mice are weighed and 12 mice in each group are sacrificed. Lung tissues are collected and the whole lung wet weight is measured. […] After tidying, the lungs are photographed, excess tissues such as the trachea are cleared away, and the wet weight of the whole lung is measured to calculate the lung index. • (3) The upper lobe of the left lung is fixed in 4% neutral paraformaldehyde, fixed for 24 hours, paraffin-embedded and sectioned for HE staining. • (4) The remaining lung tissues are put into centrifugal tubes separately, quickly frozen in liquid nitrogen, and then stored at −80° C. after the experiment, which is used for the detection of MDA, SOD, western blotting (WB) and reverse transcription polymerase chain reaction (RT-PCR). […]
The lung tissue is taken out from −80° C., and its weight is accurately measured. […]

IL-6 [1] = assay: IL-6 content in BALF by ELISA
Description: (§4) A total of 144 SPF-grade healthy Kunming mice, aged 5-7 weeks and weighing 18-22 g, are weighed and randomly allocated into six experimental groups: control group (NS), model group (LPS), dexamethasone group (DEX, […] per kilogram abbreviated as mg/kg), genipin beta-methyl derivative low-dose group (12.5 mg/kg), genipin beta-methyl derivative medium-dose group (25 mg/kg), and genipin beta-methyl derivative high-dose group (50 mg/kg), 24 animals per group, in which 12 animals are used to take lung tissue for the detection of other indicators, and another 12 animals are used to collect BALF.
All mice are gavaged with a same volume of 0.9% normal saline once a day in the NS group and the LPS group, DEX solution (0.39 mg/kg) is gavaged once a day in the DEX group, low-dose Gen-17 solution (12.5 mg/kg) is gavaged once a day in the medium-dose Gen-17 group, medium-dose Gen-17 solution (25 mg/kg) is gavaged once a day in the high-dose Gen-17 group, and high-dose Gen-17 solution (50 mg/kg) is gavaged once a day in the high-dose Gen-17 group. The dosage is converted according to the weight of the mice, and the gavage volume is 20 milliliters per kilogram (mL/kg), and the gavage is continued for 3 days. One hour after the gavage on the third day, the ALI model is established by tracheal instillation of LPS solution. […]

IkB-α = IkB-α mRNA in lung tissue by qRT-PCR; settings: Gen-17 (12.5, 25, 50 mg/kg gavage) compared with LPS group (P<0.001)
Description: as §1, §2

NF-κB p65 = NF-κB p65 protein in lung tissue by WB
Description: as §1, §2

LPS-induced ALI mice [2] = assay: HE staining histopathology and alveolitis score of lung tissue; settings: for pathological scores of alveolitis: compared with DEX group (P<0.05)
Description: as §3
Samples are collected 24 hours after the animal model is established. The mice are weighed and 12 mice in each group are sacrificed. Lung tissues are collected and the whole lung wet weight is measured. The lung tissues are packaged for hematoxylin and eosin (HE) staining, MDA and SOD content determination, gene and protein detection. The specific experimental procedures are as follows. • (1) 12 mice in each group are weighed and their necks are dislocated and sacrificed. • (2) The mice are fixed. The abdomen is wiped with 75% alcohol. The thoracic cavity is then opened, and the lung tissue is removed. After tidying, the lungs are photographed, excess tissues such as the trachea are cleared away, and the wet weight of the whole lung is measured to calculate the lung index. • (3) The upper lobe of the left lung is fixed in 4% neutral paraformaldehyde, fixed for 24 hours, paraffin-embedded and sectioned for HE staining. • (4) The remaining lung tissues are put into centrifugal tubes separately, quickly frozen in liquid nitrogen, and then stored at −80° C. after the experiment, which is used for the detection of MDA, SOD, western blotting (WB) and reverse transcription polymerase chain reaction (RT-PCR). 2.4 BALF Collection and Processing

LPS-induced ALI mice [3] = assay: Total protein concentration in BALF by BCA; settings: compared with LPS group (P<0.05)
Description: as §4
All mice are gavaged with a same volume of 0.9% normal saline once a day in the NS group and the LPS group, DEX solution (0.39 mg/kg) is gavaged once a day in the DEX group, low-dose Gen-17 solution (12.5 mg/kg) is gavaged once a day in the medium-dose Gen-17 group, medium-dose Gen-17 solution (25 mg/kg) is gavaged once a day in the high-dose Gen-17 group, and high-dose Gen-17 solution (50 mg/kg) is gavaged once a day in the high-dose Gen-17 group. The dosage is converted according to the weight of the mice, and the gavage volume is 20 milliliters per kilogram (mL/kg), and the gavage is continued for 3 days. One hour after the gavage on the third day, the ALI model is established by tracheal instillation of LPS solution. The specific experimental procedures are as follows. • (1) Before the operation, the mice are anesthetized by intraperitoneal injection of 1% sodium pentobarbital (30 mg/kg) according to their body weight. • (2) Limbs of anesthetized mice are fixed with rubber bands, teeth are wired with thin threads, and neck skin is disinfected with 75% alcohol. • (3) A subcutaneous tissue is separated along a longitudinal incision in a middle of the mouse neck until a cartilage ring appeared in an exposed trachea. • (4) A microinjector is inserted into the trachea in parallel towards a proximal end for about 1 centimeter (cm). […]

IL-6 [4] = assay: IL-6 mRNA in lung tissue by qRT-PCR
Description: as §1, §2

[5] = Gen-17 groups (12.5, 25, 50 mg/kg gavage) compared with LPS group
[6] = low-dose Gen-17 12.5 mg/kg gavage

In the case of `COC(=O)C1=CO[C@@H](OC)[C@@H]2C(COC(=O)c3cccc(Br)c3)=CC[C@H]12` [Gen-17, genipin beta-methyl derivative], the “MDA content in the lung tissue homogenate” value (MDA) is reported as “reduce the MDA content”, the “expression of Keap1 protein in lung tissue, overall result” value (Keap1; Gen-17 12.5, 25, 50 mg/kg gavage, ALI mice) is reported as “downregulate the expression of Keap1 protein” and the “expression of Keap1 protein in lung tissue (decrease)” value (Keap1; high-dose Gen-17 50 mg/kg gavage, compared with LPS group) is reported as “statistically significant (P<0.001)”. For the same compound, the “content of IL-6 in BALF” value (IL-6 [1]; [5]) was “reduce the contents of inflammatory cytokines”, the “IL-6 level in BALF” value (IL-6 [1]; low-dose Gen-17 12.5 mg/kg gavage, compared with DEX group (P<0.01)) was “statistically significant reduction” and the “mRNA expression of IkB-α in lung tissue” value (IkB-α) was “significantly reduce the expression”. The “expression of NF-κB p65 protein in lung tissue” value (NF-κB p65; Gen-17 groups (12.5, 25, 50 mg/kg gavage) compared with NS group (P<0.001, P<0.05)) was “significantly increased”, the “expression of NF-κB p65 protein in lung tissue” value (NF-κB p65; after drug treatment, compared with LPS group (P<0.05)) was “down-regulate the expression of NF-κB p65 protein” and the “pathological damage of lung tissue (HE staining)” value (LPS-induced ALI mice [2]; [5]) was “significantly alleviate the pathological damage”. The “pathological score of lung tissue” value (LPS-induced ALI mice [2]; high-dose Gen-17 50 mg/kg gavage, compared with LPS group (P<0.01)) was “significantly reduced”, the “pathological scores of alveolitis” value (LPS-induced ALI mice [2]; [6]) was “increased” and the “pathological scores of alveolitis” value (LPS-induced ALI mice [2]; medium-dose Gen-17 25 mg/kg gavage) was “increased”. The “total protein content in BALF” value (LPS-induced ALI mice [3]; high-dose Gen-17 50 mg/kg gavage) was “significantly reduced”, the “total protein content in BALF” value (LPS-induced ALI mice [3]; [6]) was “significantly reduced” and the “total protein content in BALF” value (LPS-induced ALI mice [3]; middle-dose Gen-17 25 mg/kg gavage) was “significantly reduced”. For the same compound, the “mRNA expression of IL-6 in lung tissue” value (IL-6 [4]; Gen-17 (12.5, 25, 50 mg/kg gavage) compared with LPS group (P<0.001)) was “significantly reduce the expression” and the “mRNA expression of IL-6 in lung tissue” value (IL-6 [4]; low-dose Gen-17 12.5 mg/kg gavage, compared with DEX group (P<0.001)) was “statistical significance”.
